These results are taken from patent publication US20170081338A1, “SUBSTITUTED HETEROARYL COMPOUNDS AND METHODS OF USE” (Sunshine Lake Pharma Co., Ltd., priority 2015, published 2017).

pIC50: −log10 of the molar value.

Common to all, as to format: biochemical
Experiment [1] concerns the target T1, Aurora-B (h) (Homo sapiens, UniProt Q96GD4).
T1 construct: purchased Millipore UK Ltd (contract assay service)
Put plainly: Aurora-B (h) kinase assay. Here is the method: (§1) Kinase assays can be performed by measurement of incorporation of γ-^33P ATP into immobilized myelin basic protein (MBP). High binding white 384 well plates (Greiner) are coated with MBP (Sigma #M-1891) by incubation of 60 μL/well of 20 μg/mL MBP in Tris-buffered saline (TBS; 50 mM Tris pH 8.0, 138 mM NaCl, 2.7 mM KCl) for 24 h at 4° C. Plates are washed 3× with 100 μL TBS. Kinase reactions are carried out in a total volume of 34 μL in kinase buffer (according to the need to make, for example, 5 mM Hepes pH 7.6, 15 mM NaCl, 0.01% bovine gamma globulin (Sigma #1-5506), 10 mM MgCl2, 1 mM DTT, 0.02% TritonX-100). Compound dilutions are performed in DMSO and added to assay wells to a final DMSO concentration of 1%. Each data point is measured in duplicate, and at least two duplicate assays are performed for each individual compound determination. Enzyme is added to final concentrations of 10 nM or 20 nM, for example. A mixture of unlabeled ATP and γ-^33P ATP is added to start the reaction (2×10^6 cpm of γ-^33P ATP per well (3000 Ci/mmole) and 10 μM unlabeled ATP, typically. The reactions are carried out for 1 h at room temperature with shaking. Plates are washed 7× with TBS, followed by the addition of 50 µL/well scintillation fluid (Wallac). Plates are read using a Wallac Trilux counter. This is only one format of such assays; various other formats are possible, as known to one skilled in the art.
(§2) The above assay procedure can be used to determine the IC50 for inhibition and/or the inhibition constant, Ki. The IC50 is defined as the concentration of compound required to reduce the enzyme activity by 50% under the condition of the assay. The IC50 value is estimated by preparing a 10 point curve using a 1/2 log dilution series (for example, a typical curve may be prepared using the following compound concentrations: 3 μM, 1 μM, 0.3 μM, 0.1 μM, 0.03 μM, 0.01 μM, 0.003 μM, 0.001 μM, 0.0003 μM and 0 μM).
Aurora-B (h) is incubated with 8 mM MOPS pH 7.0, 0.2 mM EDTA, 30 μM AKRRRLSSLRA, 10 mM MgAcetate and [γ-^33PATP] (specific activity approx. 500 cpm/pmol, concentration as required). The reaction is initiated by the addition of the MgATP mix. After incubation for 40 minutes at room temperature, the reaction is stopped by the addition of a 3% phosphoric acid solution. 10 μL of the reaction is then spotted onto a P30 filtermat and washed three times for 5 minutes in 75 mM phosphoric acid and once in methanol prior to drying and scintillation counting.
(§3) The kinase assays described herein were performed at Millipore UK Ltd, Dundee Technology Park, Dundee DD2 1SW, UK.

Experiment [2] has as its target T2, Aurora-A (h) (Homo sapiens, UniProt O14965).
T2 construct: purchased Millipore UK Ltd (contract assay service)
T2 sequence (O14965 1-403): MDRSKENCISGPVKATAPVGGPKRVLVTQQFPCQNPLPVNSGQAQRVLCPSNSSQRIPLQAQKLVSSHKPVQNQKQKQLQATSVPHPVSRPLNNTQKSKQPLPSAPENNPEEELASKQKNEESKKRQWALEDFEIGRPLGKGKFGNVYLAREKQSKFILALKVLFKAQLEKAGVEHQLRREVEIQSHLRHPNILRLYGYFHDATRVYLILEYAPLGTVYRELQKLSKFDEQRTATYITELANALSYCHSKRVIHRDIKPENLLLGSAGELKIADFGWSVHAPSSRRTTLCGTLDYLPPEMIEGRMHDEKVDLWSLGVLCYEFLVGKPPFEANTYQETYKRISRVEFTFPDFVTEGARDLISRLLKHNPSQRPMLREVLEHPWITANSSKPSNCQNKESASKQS
Put plainly: Aurora-A (h) kinase assay. The procedure, abridged:
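Human Aurora-A incubated with 200 μM Kemptide, 10 mM Mg acetate, [γ-33P]ATP in 8 mM MOPS pH 7.0 for 40 min at room temperature; stopped with phosphoric acid, spotted on P30 filtermat and scintillation counted. IC50 from 10-point ½-log dilution series.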

The target of experiment [3] is T3, JAK1 (h) (Homo sapiens, UniProt P23458).
T3 construct: purchased Millipore UK Ltd (contract assay service)
The experiment can be described thus: JAK1 (h) kinase assay. Here is the method:
as §1, §2
JAK1 (h) is incubated with 20 mM Tris/HCl pH 7.5, 0.2 mM EDTA, 500 μM GEEPLYWSFPAKKK, 10 mM MgAcetate and [γ-^33P-ATP] (specific activity approx. 500 cpm/pmol, concentration as required). The reaction is initiated by the addition of the MgATP mix. After incubation for 40 minutes at room temperature, the reaction is stopped by the addition of 3% phosphoric acid solution. 10 μL of the reaction is then spotted onto a P30 filtermat and washed three times for 5 minutes in 75 mM phosphoric acid and once in methanol prior to drying and scintillation counting.
as §3

Experiment [4] concerns the target T4, JAK2 (h) (Homo sapiens, UniProt O60674).
T4 construct: purchased Millipore UK Ltd (contract assay service)
The experiment can be described thus: JAK2 (h) kinase assay. The procedure:
as §1, with “Enzyme is added to final concentrations of 10 nM or 20 nM, for example.” left out, “art. […]” for “art.”

T1 sequence (Q96GD4 whole entry): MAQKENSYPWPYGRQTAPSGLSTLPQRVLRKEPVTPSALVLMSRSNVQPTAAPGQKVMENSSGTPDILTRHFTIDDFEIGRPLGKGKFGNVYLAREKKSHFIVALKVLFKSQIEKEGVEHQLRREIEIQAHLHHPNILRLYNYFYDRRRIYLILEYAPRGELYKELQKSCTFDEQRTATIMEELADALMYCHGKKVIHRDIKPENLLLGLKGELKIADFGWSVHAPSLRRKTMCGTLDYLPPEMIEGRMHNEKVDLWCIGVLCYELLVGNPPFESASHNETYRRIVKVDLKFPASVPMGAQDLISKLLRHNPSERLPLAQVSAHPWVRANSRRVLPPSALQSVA
T3 sequence (P23458 whole entry): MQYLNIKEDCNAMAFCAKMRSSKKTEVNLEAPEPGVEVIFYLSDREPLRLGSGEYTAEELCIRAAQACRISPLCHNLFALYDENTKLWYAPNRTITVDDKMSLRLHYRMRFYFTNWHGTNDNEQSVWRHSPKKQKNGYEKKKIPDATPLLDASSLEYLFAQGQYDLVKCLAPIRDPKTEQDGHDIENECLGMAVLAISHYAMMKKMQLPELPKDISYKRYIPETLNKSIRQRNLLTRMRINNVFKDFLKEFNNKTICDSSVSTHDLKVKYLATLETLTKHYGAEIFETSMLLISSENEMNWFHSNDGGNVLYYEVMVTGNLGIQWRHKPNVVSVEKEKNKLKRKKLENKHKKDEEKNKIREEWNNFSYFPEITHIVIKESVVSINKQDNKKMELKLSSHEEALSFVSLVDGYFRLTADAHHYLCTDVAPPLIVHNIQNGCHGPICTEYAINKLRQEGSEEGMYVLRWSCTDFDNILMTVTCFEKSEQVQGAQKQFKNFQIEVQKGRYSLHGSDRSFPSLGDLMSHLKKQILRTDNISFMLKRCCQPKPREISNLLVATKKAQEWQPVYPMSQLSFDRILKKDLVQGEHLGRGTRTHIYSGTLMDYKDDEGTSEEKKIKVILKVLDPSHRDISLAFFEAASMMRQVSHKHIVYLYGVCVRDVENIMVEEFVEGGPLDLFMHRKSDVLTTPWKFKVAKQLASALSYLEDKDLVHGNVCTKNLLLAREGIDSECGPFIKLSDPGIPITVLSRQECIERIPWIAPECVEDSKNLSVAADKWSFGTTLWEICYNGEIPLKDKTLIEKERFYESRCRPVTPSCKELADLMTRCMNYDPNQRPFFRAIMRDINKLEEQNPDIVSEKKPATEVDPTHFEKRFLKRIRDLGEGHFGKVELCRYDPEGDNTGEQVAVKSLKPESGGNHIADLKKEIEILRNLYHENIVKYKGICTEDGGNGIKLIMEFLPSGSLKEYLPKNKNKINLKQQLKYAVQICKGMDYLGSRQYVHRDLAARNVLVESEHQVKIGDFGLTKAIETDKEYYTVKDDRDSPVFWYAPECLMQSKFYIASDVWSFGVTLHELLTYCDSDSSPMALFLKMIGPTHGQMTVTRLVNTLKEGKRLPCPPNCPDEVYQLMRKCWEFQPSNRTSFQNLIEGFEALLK
T4 sequence (O60674 whole entry): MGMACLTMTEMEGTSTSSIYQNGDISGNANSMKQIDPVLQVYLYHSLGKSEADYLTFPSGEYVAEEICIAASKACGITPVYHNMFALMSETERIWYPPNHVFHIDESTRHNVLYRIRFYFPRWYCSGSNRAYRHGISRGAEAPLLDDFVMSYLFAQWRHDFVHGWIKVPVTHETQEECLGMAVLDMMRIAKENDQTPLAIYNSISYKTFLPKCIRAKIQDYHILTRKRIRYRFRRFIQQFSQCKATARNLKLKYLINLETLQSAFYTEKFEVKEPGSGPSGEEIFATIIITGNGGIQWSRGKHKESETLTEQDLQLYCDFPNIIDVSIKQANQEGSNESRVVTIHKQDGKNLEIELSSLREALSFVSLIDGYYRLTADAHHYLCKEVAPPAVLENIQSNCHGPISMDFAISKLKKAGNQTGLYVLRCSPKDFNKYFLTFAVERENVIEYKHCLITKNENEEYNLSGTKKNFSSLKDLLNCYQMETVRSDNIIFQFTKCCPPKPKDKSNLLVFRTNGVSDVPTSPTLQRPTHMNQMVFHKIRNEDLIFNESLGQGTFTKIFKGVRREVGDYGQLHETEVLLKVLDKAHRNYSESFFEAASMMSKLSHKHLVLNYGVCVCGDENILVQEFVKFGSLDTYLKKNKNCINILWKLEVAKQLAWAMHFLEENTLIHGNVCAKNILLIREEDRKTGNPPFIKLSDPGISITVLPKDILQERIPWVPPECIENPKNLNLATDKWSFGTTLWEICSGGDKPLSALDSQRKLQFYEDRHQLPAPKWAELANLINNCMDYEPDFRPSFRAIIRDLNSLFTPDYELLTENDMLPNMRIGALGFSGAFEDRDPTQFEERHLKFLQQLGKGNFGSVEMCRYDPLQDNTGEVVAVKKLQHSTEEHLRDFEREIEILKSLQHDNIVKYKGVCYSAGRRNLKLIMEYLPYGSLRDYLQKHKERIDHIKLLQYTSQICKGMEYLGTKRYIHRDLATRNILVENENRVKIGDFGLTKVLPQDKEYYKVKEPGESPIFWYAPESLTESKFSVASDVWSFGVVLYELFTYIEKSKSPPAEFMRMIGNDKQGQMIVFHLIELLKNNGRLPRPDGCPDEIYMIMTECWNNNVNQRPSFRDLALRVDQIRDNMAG

For `Cn1cc(Nc2ncc(Cl)c(N[C@@H]3COC4C3OC[C@@H]4NS(=O)(=O)CC(C)(C)C#N)n2)cn1` (stereo partly drawn) [Ex. 26, N-((3S,6R)-6-((5-chloro-2-((1-methyl-1H-pyrazol-4-yl)amino)pyrimidin-4-yl)amino)hexahydrofuro[3,2-b]furan-3-yl)-2-cyano-2-methylpropane-1-sulfonamide], the negative logarithm of the IC50 (pIC50) – broadly, the negative decadic logarithm of the IC50, by convention in mol/L – is 7.96 in experiment [1], 8.22 in experiment [2] and 7.03 in experiment [3].
In the case of `Cn1cc(Nc2ncc(Cl)c(N[C@@H]3COC4C3OC[C@@H]4NS(=O)(=O)CC3CC3)n2)cn1` (stereo partly drawn) [Ex. 25, N-((3S,6R)-6-((5-chloro-2-((1-methyl-1H-pyrazol-4-yl)amino)pyrimidin-4-yl)amino)hexahydrofuro[3,2-b]furan-3-yl)-1-cyclopropylmethanesulfonamide], the pIC50 in experiment [1] was 7.62; in experiment [2], 8.30; in experiment [3], 7.57.
Take `Cn1cc(Nc2ncc(Cl)c(N[C@@H]3COC4C3OC[C@@H]4NS(=O)(=O)CC(F)(F)F)n2)cn1` (stereo partly drawn) [Ex. 27, N-((3S,6R)-6-((5-chloro-2-((1-methyl-1H-pyrazol-4-yl)amino)pyrimidin-4-yl)amino)hexahydrofuro[3,2-b]furan-3-yl)-2,2,2-trifluoroethanesulfonamide]: the negative-log IC50 (pIC50) in experiment [1] was 8.10; in experiment [2], 7.41; in experiment [3], 8.15.
For `CC(C)CS(=O)(=O)N[C@H]1COC2C1OC[C@H]2Nc1nc(Nc2cnn(C)c2)ncc1Cl` (stereo partly drawn) [Ex. 2, N-((3S,6R)-6-((5-chloro-2-((1-methyl-1H-pyrazol-4-yl)amino)pyrimidin-4-yl)amino)hexahydrofuro[3,2-b]furan-3-yl)-2-methylpropane-1-sulfonamide], the pIC50 in experiment [4] is 6.46; in experiment [1], 7.54; in experiment [2], 7.70; in experiment [3] it was 7.37.
